Results on two compounds are retold here after PMC12648443, “Modifications of NU-9, a potent protein aggregation inhibitor. Properties and activity in a cellular model of amyotrophic lateral sclerosis” (Bioorganic chemistry, 2025).

The nature of series [1]: Microsomal metabolic stability, human. Format: in vitro ADME. To be noted: liver microsomes; for microsomal CLint at 1.1 μM: pH 7.4, 0.5 mg/mL; for half-life at 1.1 μM: pH 7.4, read-out: t1/2 (human). As to the method: The assay was performed at Jubilant Biosys. Vials containing human or mouse microsomes were collected from the -80 °C freezer and thawed on ice. Then 27.5 μL of the initial microsome solutions (20 mg/mL) were diluted in 971.5 μL of a 67 mM potassium phosphate buffer solution (pH 7.4). The testing compounds were diluted in the buffered microsomal solution to obtain a final concentration of 1.1 μM. Then four different aliquots, each containing 180 μL of the assay solution, representing the samples at T = 0, T = 5, T = 15, and T = 30 min. The samples were pre-incubated at 37 °C for 5 min with gentle shaking, and then 20 μL of a NADPH solution (10 mM) was added to the different solutions of the test compounds. […] An aliquot of the supernatant (200 μL) was collected from each reaction sample and analyzed by LC-MS/MS. The Ln values of the peak area of the compounds to the internal standard over time (min.) were graphed using Excel, and the elimination rates of the compounds (k) were determined from the slopes obtained from the graphs. The k values were used to calculate the compounds half-life using the equation: t1/2=Ln2/k The intrinsic clearance (CLint) of each compound in the presence of mouse and human microsomes was calculated using the equation: […] Verapamil and Ketoconazole were used as controls to evaluate the assay performance. The results are presented as an average of two technical replicates.

The subject of series [2] is HepG2 cells. As to the kind of experiment: In vitro cytotoxicity, CellTiter-Glo, HepG2. The class given is cell-based. The settings on record: cytotoxicity EC50 (HepG2, HEK293) versus PC12-SOD1^G85R EC50. Here is the method:
(§1) The HepG2 and HEK293 cells were cultured in DMEM media supplemented with 10 % FBS (heat-inactivated), 1 % Pen-strep, and L-glutamine and incubated at 37 °C in humidified air with 5 % CO2 until 85–90 % confluency. The PC12 Tet-Off-SOD1^G85R YFP cells were maintained as described in 4.2. On the day before the experiments, the cells were transferred to white bottom 96 well plates (Greiner cat. 655,083) at a concentration of 50,000 cells/100 μL of media in each well and incubated overnight at 37 °C. Stock solutions of the compounds (30 mM) in DMSO were prepared and then diluted in media to obtain the six final working solutions starting at 30 μM, and serial dilutions were obtained with the lowest concentration at 0.25 μM. The media were removed and fresh media containing the compounds or the vehicle DMSO (0.1 % v/v) were transferred to the plates containing HepG2 and HEK293 cells and the plates were incubated for 24 or 48 h at 37 °C. The PC12 Tet-Off-SOD1^G85R YFP cells compound treatment was performed as described in section 4.2 and using a 9-point 2-fold serial dilution of the compounds starting at 15 μM and the lowest concentration at 0.05 μM. After incubation, the plates were cooled to room temperature and 25 μL of CellTiter-Glo® solution was added to each well. The plates were loaded into a BioTek Synergy H1 MD plate reader and shaken for 2 min, stabilized for 10 min without shaking, and then the luminescence values were read for each well (luminescence integration step 1 ms). Wells containing media with the vehicle DMSO with or without cells were used as controls to represent, respectively, the maximum viability and the lowest viability (background signal) for the cytotoxicity studies with HepG2 and HEK293 cell lines. The viability values for the assay performed with the PC12 Tet-Off-SOD1^G85R YFP cells were normalised for the vehicle (0.1 % DMSO) and (−)-MG-132 alone treatments, which represented respectively the […] viability for the assay.
(§2) The results are presented as an average of three independent experiments, each performed in triplicate, for the cytotoxicity experiments performed with HepG2 and HEK293 cells. The results for the protective screening with the PC12 Tet-Off-SOD1^G85R YFP cells are presented as an average of four replicates.
Background: ATP-based viability assays read luminescence as a measure of living cells.

The nature of series [3]: In vitro cytotoxicity, CellTiter-Glo, HepG2. The class given is cell-based. The settings on record: human, HepG2 cells; for viability at 24 h, 30 μM / viability at 48 h, 30 μM: relative to untreated cells, read-out: Percentage of viable cells observed at 30 μM treatment, HepG2; for EC50 at 24 h / EC50 at 48 h: cytotoxicity. As to the method: as §1, §2
Series [4] concerns the target T1, BCRP (Homo sapiens, UniProt Q9UNQ0).
T1 construct: host or cells: MDCKII-BCRP (canine MDR1 knockout, transfected with BCRP)
T1 sequence (Q9UNQ0 1-655): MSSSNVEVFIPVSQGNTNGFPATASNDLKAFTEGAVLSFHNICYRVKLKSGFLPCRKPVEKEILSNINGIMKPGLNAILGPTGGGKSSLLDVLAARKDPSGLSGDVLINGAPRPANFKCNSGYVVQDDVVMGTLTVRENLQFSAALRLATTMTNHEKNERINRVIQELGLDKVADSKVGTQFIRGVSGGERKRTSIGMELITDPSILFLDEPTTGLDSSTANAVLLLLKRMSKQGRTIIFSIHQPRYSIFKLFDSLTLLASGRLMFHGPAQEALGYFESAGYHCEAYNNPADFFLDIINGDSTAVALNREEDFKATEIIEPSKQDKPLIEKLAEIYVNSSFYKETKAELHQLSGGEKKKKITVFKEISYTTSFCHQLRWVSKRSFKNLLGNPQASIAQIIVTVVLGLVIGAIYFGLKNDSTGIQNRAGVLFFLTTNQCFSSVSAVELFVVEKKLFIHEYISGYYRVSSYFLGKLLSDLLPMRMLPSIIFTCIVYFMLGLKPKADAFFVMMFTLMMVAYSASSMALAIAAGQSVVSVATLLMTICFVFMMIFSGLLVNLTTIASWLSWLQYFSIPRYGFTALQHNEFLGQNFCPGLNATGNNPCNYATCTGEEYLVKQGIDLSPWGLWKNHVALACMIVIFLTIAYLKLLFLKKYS
Put plainly: MDCKII-BCRP bidirectional permeability / efflux assay. The settings on record: for substrate for the BCRP transporter: based on efflux ratio (> 2.0 = substrate); for Papp A→B at 120 min / Papp B→A at 120 min / efflux ratio at 120 min: dog, MDCKII-BCRP, absence of Ko143. Format: in vitro ADME. As to the method: For each experiment, the apparent permeability (Papp) for each direction and the efflux ratio (ER) were determined by the equations: Papp(cm/s)=(dQ/dt)/A×Co
Where P(B→A) is the apparent permeability of the compounds from the basal to the apical direction and P(A→B) is the apparent permeability from the apical to basal direction. […] The results are presented as an average of two independent experiments.

Series [5] can be described thus: In vitro cytotoxicity, CellTiter-Glo, HEK293. Format: cell-based. To be noted: human, HEK293 cells; for viability at 24 h, 30 μM / viability at 48 h, 30 μM: relative to untreated cells, read-out: Percentage of viable cells observed at 30 μM treatment, HEK293; for EC50 at 24 h / EC50 at 48 h: cytotoxicity. As to the method: as §1, §2

As to `CC(C)(Oc1cc(C(F)(F)F)cc(C(F)(F)F)c1)C1CC(=O)CC(=O)C1` [Compound 20, 5-(2-(3,5-bis(trifluoromethyl)phenoxy)propan-2-yl)cyclohexane-1,3-dione], in series [1], the microsomal CLint (as a rule, the rate of metabolic loss divided by the concentration) at 1.1 μM turned out to be 10.4 ± 3.1 µL/min/mg and the half-life at 1.1 μM was above 120 min. In addition, in series [2], the “EC50 Fold difference” value is recorded as above 11. In series [3], the viability at 24 h, 30 μM stood at 96%; the viability at 48 h, 30 μM stood at 92.3%; the EC50 (in general, the concentration needed to bring the measured effect to its halfway point) at 24 h is above 30 µM; the EC50 at 48 h is above 30 µM. In series [4], the “substrate for the BCRP transporter” value is recorded as “substrates”; the Papp A→B (commonly how fast a substance crosses the layer from the apical side) at 120 min is 3.62 ± 0.22 ×10⁻⁶ cm/s; the Papp B→A (as a rule, how fast a substance crosses the layer from the basolateral side) at 120 min is 19.2 ± 0.88 ×10⁻⁶ cm/s; the efflux ratio (usually a quotient of directional permeabilities that is used to spot active efflux) at 120 min was 5.32. Further, in series [5], the viability at 24 h, 30 μM is 90%; the viability at 48 h, 30 μM is 91.6%; the EC50 at 24 h is above 30 µM; the EC50 at 48 h is above 30 µM.
With `O=C1CC(=O)CC(/C=C/c2cc(C(F)(F)F)cc(C(F)(F)F)c2)C1` [Compound 6, (E)-5-(3,5-Bis(trifluoromethyl)styryl)cyclohexane-1,3-dione], in series [1], the microsomal CLint at 1.1 μM turned out to be 25.8 ± 1.6 µL/min/mg and the half-life at 1.1 μM was 53.9 ± 3.3 min. Further, the “EC50 Fold difference” value in series [2] is recorded as above 14. Moreover, in series [3], the viability at 24 h, 30 μM was found to be 91.9%; the viability at 48 h, 30 μM amounted to 94%; the EC50 at 24 h was above 30 µM; the EC50 at 48 h is above 30 µM. For the same compound, in series [4], the “substrate for the BCRP transporter” value is “substrates”, the Papp A→B at 120 min was found to be 0.66 ± 0.18 ×10⁻⁶ cm/s, the Papp B→A at 120 min was 31.5 ± 2.73 ×10⁻⁶ cm/s and the efflux ratio at 120 min is 47.4. Also, in series [5], the viability at 24 h, 30 μM stood at 82.6%; the viability at 48 h, 30 μM came to 89.6%; the EC50 at 24 h is above 30 µM; the concentration giving a half-maximal response (EC50) at 48 h was above 30 µM.
